The assay concerns the target T1, human MDM2 (GST-hMDM2 1-188), interaction with biotinylated-p53 (1-83) (Homo sapiens, UniProt Q00987).
T1 construct: Amino acid residues 1-188 of human MDM2 were expressed; made in house; host or cells: Escherichia coli
Kind of assay: improved HTRF assay (HTRF2 assay), inhibition of HDM2-p53 interaction. The format is binding. Particulars: 0.2 nM GST-hMDM2, 0.5 nM biotinylated-p53, 100 mM KF. In a few lines: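 Time-resolved fluorescence (HTRF) read after >4 h equilibration with SA-XLent/anti-GST cryptate/KF detection reagents. Reaction: compound plus GST-hMDM2 for 20 min at room temperature, then E. coli-expressed biotinylated p53 residues 1-83 for 60 min, 2% DMSO final. Inhibition expressed versus nutlin-3.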
T1 sequence (Q00987 1-188): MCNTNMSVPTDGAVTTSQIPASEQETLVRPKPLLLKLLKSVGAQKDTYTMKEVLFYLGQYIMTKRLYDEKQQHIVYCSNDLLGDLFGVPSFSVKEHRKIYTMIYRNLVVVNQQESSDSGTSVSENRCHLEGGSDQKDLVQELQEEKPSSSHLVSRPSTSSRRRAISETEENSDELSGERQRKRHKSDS
As a reminder, the IC50 is the concentration at which inhibition is half-maximal. Lower therefore signals greater potency in that assay. The compound `CC(C)(C)S(=O)(=O)C[C@H](C1CC1)N1C(=O)[C@@H](CC(=O)Nc2ccccc2F)O[C@H](c2cccc(Cl)c2)[C@H]1c1ccc(Cl)cc1` (single isomer, unassigned) [Example 352, 2-((2R,5R,6R)-4-((S)-2-(tert-Butylsulfonyl)-1-cyclopropylethyl)-6-(3-chlorophenyl)-5-(4-chlorophenyl)-3-oxomorpholin-2-yl)-N-(2-fluorophenyl)acetamide or 2-((2S,5R,6R)-4-((S)-2-(tert-butylsulfonyl)-1-cyclopropylethyl)-6-(3-chlorophenyl)-5-(4-chlorophenyl)-3-oxomorpholin-2-yl)-N-(2-fluorophenyl)acetamide] registered an IC50 of 25 nM.
In the case of `CC[C@@H]([C@H](C)S(=O)(=O)C(C)(C)C)N1C(=O)[C@@H](CC(=O)O)O[C@H](c2cccc(Cl)c2)[C@H]1c1ccc(Cl)cc1` (single isomer, unassigned) [Example 419], the IC50 came to 4 nM.
Take `C[C@@H](CS(=O)(=O)C(C)(C)C)N1C(=O)[C@@H](CC(=O)N(C)C)O[C@H](c2cccc(Cl)c2)[C@H]1c1ccc(Cl)cc1` (single isomer, unassigned) [Example 232, 2-((2R,5R,6R)-4-((S)-1-(tert-butylsulfonyl)propan-2-yl)-6-(3-chlorophenyl)-5-(4-chlorophenyl)-3-oxomorpholin-2-yl)-N,N-dimethylacetamide or 2-((2S,5R,6R)-4-((S)-1-(tert-butylsulfonyl)propan-2-yl)-6-(3-chlorophenyl)-5-(4-chlorophenyl)-3-oxomorpholin-2-yl)-N,N-dimethylacetamide]: the IC50 is 31 nM.
`NC(=O)C[C@H]1O[C@H](c2cccc(Cl)c2)[C@@H](c2ccc(Cl)cc2)N([C@H](CN(c2c(F)cccc2F)S(=O)(=O)C2CC2)C2CC2)C1=O` (single isomer, unassigned) [Example 359, 2-((2R,5R,6R)-6-(3-Chlorophenyl)-5-(4-chlorophenyl)-4-((S)-1-cyclopropyl-2-(N-(2,6-difluorophenyl)cyclopropanesulfonamido)ethyl)-3-oxomorpholin-2-yl)acetamide or 2-((2S,5R,6R)-6-(3-chlorophenyl)-5-(4-chlorophenyl)-4-((S)-1-cyclopropyl-2-(N-(2,6-difluorophenyl)cyclopropanesulfonamido)ethyl)-3-oxomorpholin-2-yl)acetamide] came in with a half-maximal inhibitory concentration (IC50) of less than 1 nM.
As for `CC[C@@H](CN(c1ccccn1)S(=O)(=O)C1CC1)N1C(=O)[C@H](CC(=O)O)O[C@H](c2cccc(Cl)c2)[C@H]1c1ccc(Cl)cc1` (single isomer, unassigned) [Example 181, 2-((2S,5R,6R)-6-(3-chlorophenyl)-5-(4-chlorophenyl)-3-oxo-4-((S)-1-(N-(pyridin-2-yl)cyclopropanesulfonamido)butan-2-yl)morpholin-2-yl)acetic acid or 2-((2R,5R,6R)-6-(3-chlorophenyl)-5-(4-chlorophenyl)-3-oxo-4-((S)-1-(N-(pyridin-2-yl)cyclopropanesulfonamido)butan-2-yl)morpholin-2-yl)acetic acid], the figure is 1 nM; as for `CC[C@@H](CN(c1ccccc1F)S(=O)(=O)C1(C)CC1)N1C(=O)[C@@H](CC(=O)O)O[C@H](c2cccc(Cl)c2)[C@H]1c1ccc(Cl)cc1` (single isomer, unassigned) [Example 174, 2-((2R,5R,6R)-6-(3-chlorophenyl)-5-(4-chlorophenyl)-4-((S)-1-(N-(2-fluorophenyl)-1-methylcyclopropanesulfonamido)butan-2-yl)-3-oxomorpholin-2-yl)acetic acid or 2-((2S,5R,6R)-6-(3-chlorophenyl)-5-(4-chlorophenyl)-4-((S)-1-(N-(2-fluorophenyl)-1-methylcyclopropanesulfonamido)butan-2-yl)-3-oxomorpholin-2-yl)acetic acid], less than 1 nM.
To `CC[C@@H](CS(=O)(=O)C(C)C)N1C(=O)[C@@H](CC(=O)O)O[C@H](c2cc(Cl)cc(Cl)c2)[C@H]1c1ccc(Cl)cc1` (single isomer, unassigned) [Example 146, 2-((2R,5R,6R)-5-(4-chlorophenyl)-6-(3,5-dichlorophenyl)-4-((S)-1-(isopropylsulfonyl)butan-2-yl)-3-oxomorpholin-2-yl)acetic acid or 2-((2S,5R,6R)-5-(4-chlorophenyl)-6-(3,5-dichlorophenyl)-4-((S)-1-(isopropylsulfonyl)butan-2-yl)-3-oxomorpholin-2-yl)acetic acid] belongs 15 nM.
As for `CC[C@@H](CS(=O)(=O)CCN(C)C)N1C(=O)[C@H](CC(=O)O)O[C@H](c2cccc(Cl)c2)[C@H]1c1ccc(Cl)cc1` (single isomer, unassigned) [Example 248, 2-((2S,5R,6R)-6-(3-chlorophenyl)-5-(4-chlorophenyl)-4-((S)-1-((2-(dimethylamino)ethyl)sulfonyl)butan-2-yl)-3-oxomorpholin-2-yl)acetic acid or 2-((2R,5R,6R)-6-(3-chlorophenyl)-5-(4-chlorophenyl)-4-((S)-1-((2-(dimethylamino)ethyl)sulfonyl)butan-2-yl)-3-oxomorpholin-2-yl)acetic acid], the IC50 worked out at 8 nM.
The compound `CC[C@@H](CS(=O)(=O)[C@H](C)C(C)C)N1C(=O)[C@H](CC(=O)O)O[C@H](c2cccc(Cl)c2)[C@H]1c1ccc(Cl)cc1` (single isomer, unassigned) [Example 284] yielded an IC50 of 5 nM.
As for `CC(C)(C)S(=O)(=O)C[C@H](C1CC1)N1C(=O)[C@@H](CC(=O)O)O[C@H](c2ccc(C#N)c(Cl)c2)[C@H]1c1ccc(Cl)cc1` (single isomer, unassigned) [Example 325, 2-((2R,5R,6R)-4-((S)-2-(tert-Butylsulfonyl)-1-cyclopropylethyl)-6-(3-chloro-4-cyanophenyl)-5-(4-chlorophenyl)-3-oxomorpholin-2-yl)acetic acid or 2-((2S,5R,6R)-4-((S)-2-(tert-butylsulfonyl)-1-cyclopropylethyl)-6-(3-chloro-4-cyanophenyl)-5-(4-chlorophenyl)-3-oxomorpholin-2-yl)acetic acid], the figure is 4 nM.
As to “2-((2R,5R,6R)-6-(3-chlorophenyl)-5-(4-chlorophenyl)-4-((S)-1-(N-(2-cyanophenyl)cyclopropanesulfonamido)butan-2-yl)-3-oxomorpholin-2-yl)acetic acid or 2-((2S,5R,6R)-6-(3-chlorophenyl)-5-(4-chlorophenyl)-4-((S)-1-(N-(2-cyanophenyl)cyclopropanesulfonamido)butan-2-yl)-3-oxomorpholin-2-yl)acetic acid [Example 206]”, the IC50 came to 145 nM.
Take `NC(=O)C[C@H]1O[C@H](c2cccc(Cl)c2)[C@@H](c2ccc(Cl)cc2)N([C@H](CN(c2ccccc2)S(=O)(=O)C2CC2)C2CC2)C1=O` (single isomer, unassigned) [Example 360, 2-((2R,5R,6R)-6-(3-Chlorophenyl)-5-(4-chlorophenyl)-4-((S)-1-cyclopropyl-2-(N-phenylcyclopropanesulfonamido)ethyl)-3-oxomorpholin-2-yl)acetamide or 2-((2S,5R,6R)-6-(3-chlorophenyl)-5-(4-chlorophenyl)-4-((S)-1-cyclopropyl-2-(N-phenylcyclopropanesulfonamido)ethyl)-3-oxomorpholin-2-yl)acetamide]: the IC50 is 1 nM.

The record behind these values is patent publication US9376425B2, “Heterocyclic compounds as MDM2 inhibitors for the treatment of cancer” (AMGEN INC., priority 2011, dated 2016).
